Structures can show the parent of a compound that is named as a salt.
What was measured:
[1] = Anesthetized mongrel dog model of the hypotensive potential of esmolol infusions; assay type: in vivo; details: for decrease in mean arterial pressure (MAP) from pre-infusion baseline, percent change: high dose infusion protocols, FIG. 10: 2000 μg/kg/min RS, 1000 μg/kg/min S, 1000 μg/kg/min R
Protocol: A model system utilizing anesthetized mongrel dogs was established in order to predict the hypotensive potential of esmolol hydrochloride injection in human patients. One dog was administered a formulation containing racemic esmolol hydrochloride at a loading dose of 600 μg/kg/min for 3 minutes followed by a maintenance infusion of 300 μg/kg/min for 10 minutes (referred to as 600RS/300RS) followed by a washout period (FIG. 1). In this and subsequent figures, the duration of infusion of the various medicaments is indicated by a coded horizontal line, parallel to the time axis. This protocol was repeated by administering 2000 μg/kg/min for 3 minutes followed by a maintenance infusion of 1000 μg/kg/min for 10 minutes (referred to as 2000RS/1000RS) and then by administering 400 μg/kg/min for 3 minutes followed by a maintenance infusion of 200 μg/kg/min for 10 minutes (referred to as 400RS/200RS). Mean arterial blood pressure and heart rate were monitored throughout the experiment.
While the doses administered to the dogs in the experiments described herein were larger than typical clinical doses, the doses were administered in order to increase repeatability and induce acute hypotension in close to 100% of the dogs by sufficiently increasing the effect level above background noise. Moreover, relative to esmolol administration in humans, the dog model replicates within experimental error the same dependence of mean arterial blood pressure versus infusion rate. Therefore, the conclusions reached at these relatively higher dose levels in dogs are relevant to minimization of adverse effects at lower doses in humans.
In initial experiments, the hypotensive potential of a composition comprising the S-isomer of esmolol hydrochloride was compared to a composition comprising the racemic formulation. Mean arterial blood pressure, cardiac output, and systemic vascular resistance were monitored throughout the experiments. Cardiac output and systemic vascular resistance were evaluated to understand the cause of the hypotension (i.e., decrease in cardiac output and/or decrease in systemic vascular resistance).
Each of four mongrel dogs was administered increasing doses of esmolol hydrochloride (FIGS. 2-5). Two dogs (D00028 and DG0029) received 150 μg/kg/min of the S-isomer formulation until mean arterial pressure reached a steady state, at which time the animal was immediately switched over to 300 μg/kg/min of the racemic formulation (this protocol is referred to as 150S/300RS in FIGS. 3a and 4a). Once a steady state was reached the infusion was stopped and was followed by a washout period. A similar protocol was repeated in both dogs using 300 μg/kg/min of the S-isomer of esmolol followed by administration of 600 μg/kg/min of the racemic mixture of esmolol (this protocol is 300S/600RS in FIGS. 3b and 4b). A final protocol involved administration of 1000 μg/kg/min of the S-isomer of esmolol followed by administration of 2000 μg/kg/min of the racemic mixture of esmolol followed by 1000 μg/kg/min of the S-isomer of esmolol (this protocol is referred to as 1000S/2000RS/1000S in FIGS. 3c and 4c).
A similar series of protocols were repeated with the other two dogs (DG0027 and DG0030) except the racemic mixture of esmolol was administered before the S-isomer. In other words, 300 μg/kg/min of the racemic mixture of esmolol was administered, followed by administration of 150 μg/kg/min of the S-isomer of esmolol (this protocol is referred to as 300RS/150S in FIGS. 2a and 5a), 600 μg/kg/min of the racemic mixture of esmolol was administered, followed by administration of 300 μg/kg/min of the S-isomer of esmolol (this protocol is referred to as 600RS/300S in FIGS. 2b and 5b), and 2000 μg/kg/min of the racemic mixture of esmolol was administered, followed by administration of 1000 μg/kg/min of the S-isomer of esmolol, and then 2000 μg/kg/min of the racemic mixture of esmolol again (this protocol is referred to as 2000RS/1000S/2000RS in FIGS. 2c and 5c)]. […]

[2] = as above; assay type: in vivo
[3] = cited from earlier work
[4] = Superimposition of dog systolic blood pressure results with human meta-analysis (Yu et al.); assay type: in vivo; details: at a given dose, FIG. 13, human data of Yu et al.
From the text: The esmolol doses administered to the dogs in the experiments described herein needed to be larger than typical clinical doses used in humans in order to increase repeatability and induce acute hypotension in close to 100% of the dogs by sufficiently increasing the effect level above background noise. To confirm that the results obtained herein with mongrel dogs are clinically relevant, data from the experimental results obtained herein were superimposed with the maximal weighted mean difference in systolic blood pressure results obtained by Yu et al. in a meta-analysis of randomized controlled clinical trials with esmolol hydrochloride (Yu et al., Anesth Analg. 2011 February; 112(2):267-81).

[5] = tested on: isoproterenol-induced tachycardia; experiment: Isoproterenol challenge (isoproterenol-induced tachycardia) in dogs after esmolol infusion; assay type: in vivo, dog; details: for reduction in mean arterial pressure: 10 minutes
Protocol: The purpose of this experiment was to determine if the attenuated hypotension (as assessed by mean arterial blood pressure end point) observed in Example 2 following administration of the S-isomer was associated with reduced efficacy (i.e., ability to control isoproterenol-induced tachycardia) as compared with the racemic formulations.
One dog was administered a bolus dose of isoproterenol (0.25 μg/kg) to establish a baseline heart rate response (FIG. 6a). Isoproterenol is a non-selective […] adrenergic agonist capable of inducing tachycardia. After a washout period, the racemic formulation (RS) was administered at 90 μg/kg/min for 10 minutes immediately followed by an isoproterenol challenge. After a washout period, the S-isomer formulation (S) was administered at 45 μg/kg/min for 10 minutes immediately followed by another isoproterenol challenge. This protocol was repeated using 150 μg/kg/min S-isomer followed by 300 μg/kg/min racemic formulation (FIG. 6b) then 2000 μg/kg/min racemic formulation followed by 1000 μg/kg/min S-isomer (FIG. 6c).
The experimental protocol was carried out essentially as described in Example 3. In short, each dog was administered racemic esmolol (RS) at the indicated dose for 10 minutes immediately followed by an isoproterenol challenge (a bolus dose of isoproterenol at 0.25 μg/kg). After a washout period, the S-isomer formulation (S) was administered at an equitherapeutic dose for 10 minutes immediately followed by another isoproterenol challenge. This protocol was performed at 90 μg/kg/min RS/45 μg/kg/min S (5 dogs), 300 μg/kg/min RS/150 μg/kg/min S (1 dog), 600 μg/kg/min RS/300 μg/kg/min S (3 dogs), 1000 μg/kg/min RS/500 μg/kg/min S (4 dogs), and 2000 μg/kg/min RS/1000 μg/kg/min S (3 dogs).
In order to better estimate the true differential effect in hypotensive potential between racemic esmolol and the S-isomer of esmolol at the lower dose range, data from other dogs that were not part of the isoproterenol challenge experiments, but were otherwise treated identically, were combined with the data set from FIG. 12A and presented in FIG. 12B. The additional data points were only from those dogs where a stated dose was administered first or where a sufficient wash-out period preceded the stated dose as to avoid any confounding variables. […] Thus, the lack of significant differentiation in mean arterial pressure seen at the lower doses in FIG. 12A was likely due to the relatively smaller sample size and biological variability.

beta-adrenergic = details: WO 88/01614; cited from earlier work
[6] = Example 1, one dog, 400RS/200RS, 600RS/300RS, 2000RS/1000RS

Structure (SMILES): COC(=O)CCc1ccc(OC[C@H](O)CNC(C)C)cc1 (single isomer, unassigned) [R-isomer]
- ability to lower heart rate when experimentally increased ([1]; Examples 1-4): no apparent, inherent ability to lower heart rate
- decrease in mean arterial pressure (MAP) from pre-infusion baseline, percent change [1]: 19%
- cardiovascular changes following administration ([2]; Example 4): qualitatively identical to those following the administration of the racemic formulation

Structure (SMILES): COC(=O)CCc1ccc(OCC(O)CNC(C)C)cc1 (racemic) [esmolol hydrochloride, methyl-3-[4-(2-hydroxy-3-isopropylamino)propoxy]phenylpropionate hydrochloride]
- patients who experienced hypotension ([3]; clinical trials, packaging insert): 20-50%
- acute hypotension in patients of Asian ancestry ([3]; loading infusion 500 μg/kg body weight per minute, Ko et al.): all patients administered this dosage experienced acute hypotension
- heart rate response [1, 6]: dose-dependent reflex tachycardia
- mean arterial blood pressure response [1, 6]: clear dose-dependent decrease in mean arterial blood pressure
- mean arterial pressure response ([1]; Example 2, four dogs, 300, 600, 2000 μg/kg/min, before or after the S-isomer): dose-dependent decrease in mean arterial pressure in all four dogs
- decrease in MAP from end of first infusion to end of second infusion ([1]; FIG. 11, initial state S-isomer formulation, then RS racemic mixture): 32%
- decrease in mean arterial pressure (MAP) from pre-infusion baseline, percent change [1]: 40%
- severity of clinical hypotension (systolic blood pressure) in human patients relative to the dog model [4]: more than two times as severe
- mean arterial blood pressure response ([5]; Example 3, one dog, RS 90, 300, 2000 μg/kg/min vs S 45, 150, 1000 μg/kg/min): greater dose-dependent decrease in mean arterial blood pressure relative to the S-isomer
- reduction in mean arterial pressure ([5]; Example 5, infusion rate 1000 μg/kg/min): about 20 mmHg

Structure (SMILES): COC(=O)CCc1ccc(OC[C@@H](O)CNC(C)C)cc1.Cl (single isomer, unassigned) [S-isomer]
- hypotension (mean arterial blood pressure) at the high dose infusion protocol ([1]; Example 2, 1000 μg/kg/min S-isomer vs 2000 μg/kg/min racemic mixture): significantly less hypotension relative to the racemic formulation
- mean arterial blood pressure during the 1000S phase ([1]; Example 2, 2000RS/1000S/2000RS protocol, FIG. 2c): increased
- increase in MAP from end of first infusion to end of second infusion ([1]; FIG. 11, initial state RS racemic mixture, then S-isomer): 34%
- decrease in mean arterial pressure (MAP) from pre-infusion baseline, percent change [1]: 13%
- mean arterial blood pressure at the high dose infusion rate relative to the racemic formulation ([2]; Example 4, 1000 μg/kg/min S after 2000 μg/kg/min RS): improved (or increased)
- potency as beta-adrenergic-blocking agent relative to an equivalent amount of the racemic mixture (beta-adrenergic): about twice
- hypotension (mean arterial blood pressure) at the high infusion rate ([5]; Example 3, 1000 μg/kg/min S-isomer vs 2000 μg/kg/min racemic formulation): significantly less hypotension relative to the racemic formulation
- efficacy in reducing isoproterenol-induced tachycardia ([5]; Example 3, equitherapeutic amounts (half the racemic dose)): same degree of efficacy in reducing isoproterenol-induced tachycardia as compared with the racemic formulation
- hypotensive effect (reduction in mean arterial pressure) vs racemic esmolol ([5]; Example 5, doses greater than 600 μg/kg/min racemic esmolol/300 μg/kg/min S-isomer formulation): differed significantly
- reduction in mean arterial pressure ([5]; Example 5, equitherapeutic dose 500 μg/kg/min): about 10 mmHg
- percent reduction in heart rate following isoproterenol challenge vs racemic esmolol ([5]; Example 5, equitherapeutic dose (half the racemic dose), all doses, FIG. 12A): essentially identical
- efficacy in reducing isoproterenol-induced tachycardia ([5]; Example 5, equitherapeutic doses, across all doses): same degree of efficacy in reducing isoproterenol-induced tachycardia as compared with the racemic formulation
- difference in mean arterial pressure vs racemic esmolol, pooled data ([5]; FIG. 12B, 600 μg/kg/min racemic esmolol (7 dogs)/300 μg/kg/min S-isomer (5 dogs)): statistically significant difference in mean arterial pressure

Reference: patent US8686036B2, “Methods of controlling heart rate while minimizing and/or controlling hypotension” (Baxter International Inc., priority 2011, dated 2014)
